According to US8946261B2, “Substituted 1, 2, 3, 4-tetrahydroquinolin-7-yl carbamates as acetylcholinesterase inhibitors for treatment of Alzheimer's disease” (priority 2011, dated 2015):

What follows are molecules tested against T1, Acetylcholinesterase (AChE) (Mus musculus, UniProt P21836) (assay: Acetylcholinesterase (AChE) assay in brain (in vitro), Ellman method). Details: not given.
T1 construct: A 10% (w/v) homogenate of brain was prepared; from tissue; host or cells: whole brain of adult Swiss albino mice; supernatant (100,000 g) of the 1% Triton X-100 treated homogenate
T1 sequence (P21836 32-614): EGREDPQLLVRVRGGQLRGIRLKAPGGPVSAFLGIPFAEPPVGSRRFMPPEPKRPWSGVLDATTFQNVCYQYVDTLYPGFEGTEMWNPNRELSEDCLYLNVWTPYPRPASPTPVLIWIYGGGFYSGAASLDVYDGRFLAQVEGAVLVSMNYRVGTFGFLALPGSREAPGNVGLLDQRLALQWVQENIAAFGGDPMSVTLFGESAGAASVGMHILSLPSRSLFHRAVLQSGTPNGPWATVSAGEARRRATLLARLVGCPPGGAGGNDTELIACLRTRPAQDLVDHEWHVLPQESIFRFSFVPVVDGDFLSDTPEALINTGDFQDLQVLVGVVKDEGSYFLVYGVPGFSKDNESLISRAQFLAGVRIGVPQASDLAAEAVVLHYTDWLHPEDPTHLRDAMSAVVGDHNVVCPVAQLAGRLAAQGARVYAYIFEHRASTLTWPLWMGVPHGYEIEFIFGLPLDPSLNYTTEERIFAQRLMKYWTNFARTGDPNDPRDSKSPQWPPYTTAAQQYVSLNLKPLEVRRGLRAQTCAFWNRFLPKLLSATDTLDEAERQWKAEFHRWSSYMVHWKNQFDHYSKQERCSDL
Type: biochemical, Swiss albino mice
Protocol: Acetylcholinesterase (AChE) Assay in Brain (In Vitro)
The mice were perfused under mild ether anesthesia through heart with ice cooled normal saline (0.9% NaCl) to remove blood-born cholinesterase from the brain. After perfusion the whole brain was taken out. A 10% (w/v) homogenate of brain was prepared first by homogenizing in an Ultra-Turrax T25 homogenizer at a speed of 9500 rpm thrice giving intervals for few seconds in between the runs, with sodium phosphate buffer (0.03 M, pH-7)).
The brain homogenate in volume of 500 μl was mixed with 1% Triton X-100 (1% w/v in 0.03M sodium phosphate buffer, pH-7) and centrifuged at 100,000 g at 4° C. in a Beckman Ultracentrifuge (LE 80, USA), using a fixed angle rotor (80 ti) for 60 min. Supernatant was collected and stored at 4° C. for acetylcholinesterase estimation.
The assay for each sample was run in triplicate and each experiment was performed twice.
The specific activity of AChE is expressed in μM/min/mg of protein.
The test substance (dissolved in ethanol) was incubated with enzyme source in different concentrations ([…]) for 30 min at 37° C. prior to obtain kinetic profile of AChE activity. […] The AChE inhibitory activity was calculated on the basis of % decrease in AChE activity from control values i.e. AChE activity without incubation with any standard or test drug.
The results are expressed as mean±S.E.M. Statistical analysis of passive avoidance values were performed by t-test. The IC50 value was calculated by non linear regression method using GraphPad Prism software.

Row | Structure (SMILES) | IC50 [µM]
1 | C#CCN1CCCc2ccc(OC(=O)Nc3ccccc3C)cc21 [Compound 10a, 1-(prop-2-ynyl)-1,2,3,4-tetrahydroquinolin-7-yl 2-methylphenylcarbamate] | 13.3 ± 3.33
2 | CCCCCCCNC(=O)Oc1ccc2c(c1)N(Cc1ccccc1)CCC2 [Compound 8h, 1-benzyl-1,2,3,4-tetrahydroquinolin-7-yl heptylcarbamate] | > 100
3 | O=C(Nc1ccc(Cl)cc1)Oc1ccc2c(c1)NCCC2 [Compound 9d, 1,2,3,4-tetrahydroquinolin-7-yl 4-chlorophenylcarbamate] | 126 ± 4.17
4 | Cc1ccc(NC(=O)Oc2ccc3c(c2)N(Cc2ccccc2)CCC3)cc1 [Compound 8b, 1-benzyl-1,2,3,4-tetrahydroquinolin-7-yl 4-methylphenylcarbamate] | 354 ± 21.5
5 | O=C(Nc1ccc(F)cc1)Oc1ccc2c(c1)N(Cc1ccccc1)CCC2 [Compound 8d, 1-benzyl-1,2,3,4-tetrahydroquinolin-7-yl 4-fluorophenylcarbamate] | > 100
6 | COc1ccc(NC(=O)Oc2ccc3c(c2)N(Cc2ccccc2)CCC3)cc1 [Compound 8j, 1-benzyl-1,2,3,4-tetrahydroquinolin-7-yl 4-methoxyphenylcarbamate] | > 100
7 | O=C(Nc1ccccc1F)Oc1ccc2c(c1)NCCC2 [Compound 9b, 1,2,3,4-tetrahydroquinolin-7-yl 2-fluorophenylcarbamate] | 76.3 ± 0.9
8 | Cc1ccccc1NC(=O)Oc1ccc2c(c1)N(Cc1ccccc1)CCC2 [Compound 8a, 1-benzyl-1,2,3,4-tetrahydroquinolin-7-yl 2-methylphenylcarbamate] | 13 ± 0.66
9 | C#CCN1CCCc2ccc(OC(=O)Nc3ccc(Cl)cc3)cc21 [Compound 10f, 1-(prop-2-ynyl)-1,2,3,4-tetrahydroquinolin-7-yl 4-chlorophenylcarbamate] | 756 ± 208
10 | COc1ccccc1NC(=O)Oc1ccc2c(c1)N(Cc1ccccc1)CCC2 [Compound 8i, 1-benzyl-1,2,3,4-tetrahydroquinolin-7-yl 2-methoxyphenylcarbamate] | 298 ± 12.7
11 | O=C(Nc1ccc(F)cc1)Oc1ccc2c(c1)NCCC2 [Compound 9c, 1,2,3,4-tetrahydroquinolin-7-yl 4-fluorophenylcarbamate] | 327 ± 15.9
12 | C#CCN1CCCc2ccc(OC(=O)Nc3c(C)cccc3C(C)C)cc21 [Compound 10d, 1-(prop-2-ynyl)-1,2,3,4-tetrahydroquinolin-7-yl 2-isopropyl-6-methylphenylcarbamate] | > 100
13 | C#CCN1CCCc2ccc(OC(=O)Nc3ccccc3Br)cc21 [Compound 10c, 1-(prop-2-ynyl)-1,2,3,4-tetrahydroquinolin-7-yl 2-bromophenylcarbamate] | 2.82 ± 0.04
14 | Cc1ccc(NC(=O)Oc2ccc3c(c2)NCCC3)cc1 [Compound 9a, 1,2,3,4-tetrahydroquinolin-7-yl 4-methylphenylcarbamate] | > 100
15 | O=C(Nc1ccc(Cl)cc1)Oc1ccc2c(c1)N(Cc1ccccc1)CCC2 [Compound 8f, 1-benzyl-1,2,3,4-tetrahydroquinolin-7-yl 4-chlorophenylcarbamate] | > 100
16 | C#CCN1CCCc2ccc(OC(=O)N(C)C)cc21 [Compound 10g, 1-(prop-2-ynyl)-1,2,3,4-tetrahydroquinolin-7-yl dimethylcarbamate] | 0.68 ± 0.02
17 | O=C(Nc1ccccc1F)Oc1ccc2c(c1)N(Cc1ccccc1)CCC2 [Compound 8c, 1-benzyl-1,2,3,4-tetrahydroquinolin-7-yl 2-fluorophenylcarbamate] | > 100
18 | CN1CCCc2ccc(OC(=O)Nc3ccccc3F)cc21 [Compound 8l, 1-methyl-1,2,3,4-tetrahydroquinolin-7-yl 2-fluorophenylcarbamate] | 55.9 ± 2.97

Same assay, conditions: comparison with rivastigmine

Row | Structure (SMILES) | AChE inhibitory activity compared to rivastigmine
19 | C#CCN1CCCc2ccc(OC(=O)Nc3ccccc3Br)cc21 [Compound 10c, 1-(prop-2-ynyl)-1,2,3,4-tetrahydroquinolin-7-yl 2-bromophenylcarbamate] | almost equal
20 | C#CCN1CCCc2ccc(OC(=O)N(C)C)cc21 [Compound 10g, 1-(prop-2-ynyl)-1,2,3,4-tetrahydroquinolin-7-yl dimethylcarbamate] | slightly better

Same assay, conditions: read-out: % Inhibition of AChE enzyme

Row | Structure (SMILES) | inhibition at 10 µM [%] | inhibition at 100 µM [%]
21 | C#CCN1CCCc2ccc(OC(=O)Nc3ccccc3C)cc21 [Compound 10a, 1-(prop-2-ynyl)-1,2,3,4-tetrahydroquinolin-7-yl 2-methylphenylcarbamate] | 52.5 | 60.8
22 | CCCCCCCNC(=O)Oc1ccc2c(c1)N(Cc1ccccc1)CCC2 [Compound 8h, 1-benzyl-1,2,3,4-tetrahydroquinolin-7-yl heptylcarbamate] | 5.2 | 10.1
23 | O=C(Nc1ccc(Cl)cc1)Oc1ccc2c(c1)NCCC2 [Compound 9d, 1,2,3,4-tetrahydroquinolin-7-yl 4-chlorophenylcarbamate] | 1.86 | 38.9
24 | Cc1ccc(NC(=O)Oc2ccc3c(c2)N(Cc2ccccc2)CCC3)cc1 [Compound 8b, 1-benzyl-1,2,3,4-tetrahydroquinolin-7-yl 4-methylphenylcarbamate] | 5.41 | 25.1
25 | O=C(Nc1ccc(F)cc1)Oc1ccc2c(c1)N(Cc1ccccc1)CCC2 [Compound 8d, 1-benzyl-1,2,3,4-tetrahydroquinolin-7-yl 4-fluorophenylcarbamate] | 5.23 | 15.5
26 | COc1ccc(NC(=O)Oc2ccc3c(c2)N(Cc2ccccc2)CCC3)cc1 [Compound 8j, 1-benzyl-1,2,3,4-tetrahydroquinolin-7-yl 4-methoxyphenylcarbamate] | 1.41 | 3.59
27 | O=C(Nc1ccccc1F)Oc1ccc2c(c1)NCCC2 [Compound 9b, 1,2,3,4-tetrahydroquinolin-7-yl 2-fluorophenylcarbamate] | 10.5 | 55.7
28 | Cc1ccccc1NC(=O)Oc1ccc2c(c1)N(Cc1ccccc1)CCC2 [Compound 8a, 1-benzyl-1,2,3,4-tetrahydroquinolin-7-yl 2-methylphenylcarbamate] | 44.1 | 90.4
29 | C#CCN1CCCc2ccc(OC(=O)Nc3ccc(Cl)cc3)cc21 [Compound 10f, 1-(prop-2-ynyl)-1,2,3,4-tetrahydroquinolin-7-yl 4-chlorophenylcarbamate] | 25.4 | 30.9
30 | COc1ccccc1NC(=O)Oc1ccc2c(c1)N(Cc1ccccc1)CCC2 [Compound 8i, 1-benzyl-1,2,3,4-tetrahydroquinolin-7-yl 2-methoxyphenylcarbamate] | 2.5 | 24.1
31 | O=C(Nc1ccc(F)cc1)Oc1ccc2c(c1)NCCC2 [Compound 9c, 1,2,3,4-tetrahydroquinolin-7-yl 4-fluorophenylcarbamate] | 1.15 | 21.6
32 | C#CCN1CCCc2ccc(OC(=O)Nc3c(C)cccc3C(C)C)cc21 [Compound 10d, 1-(prop-2-ynyl)-1,2,3,4-tetrahydroquinolin-7-yl 2-isopropyl-6-methylphenylcarbamate] | 17.9 | 22.5
33 | C#CCN1CCCc2ccc(OC(=O)Nc3ccccc3Br)cc21 [Compound 10c, 1-(prop-2-ynyl)-1,2,3,4-tetrahydroquinolin-7-yl 2-bromophenylcarbamate] | 71.7 | 87.3
34 | Cc1ccc(NC(=O)Oc2ccc3c(c2)NCCC3)cc1 [Compound 9a, 1,2,3,4-tetrahydroquinolin-7-yl 4-methylphenylcarbamate] | 0.01 | 1.45
35 | O=C(Nc1ccc(Cl)cc1)Oc1ccc2c(c1)N(Cc1ccccc1)CCC2 [Compound 8f, 1-benzyl-1,2,3,4-tetrahydroquinolin-7-yl 4-chlorophenylcarbamate] | 2.1 | 12.5
36 | C#CCN1CCCc2ccc(OC(=O)N(C)C)cc21 [Compound 10g, 1-(prop-2-ynyl)-1,2,3,4-tetrahydroquinolin-7-yl dimethylcarbamate] | 94.2 | 96.5
37 | O=C(Nc1ccccc1F)Oc1ccc2c(c1)N(Cc1ccccc1)CCC2 [Compound 8c, 1-benzyl-1,2,3,4-tetrahydroquinolin-7-yl 2-fluorophenylcarbamate] | 9.87 | 19.5
38 | CN1CCCc2ccc(OC(=O)Nc3ccccc3F)cc21 [Compound 8l, 1-methyl-1,2,3,4-tetrahydroquinolin-7-yl 2-fluorophenylcarbamate] | 32.8 | 58.8

The molecules below were run on Swiss albino male mice (assay: Gross behavioral study). Details: 1 mg/kg.

Row | Structure (SMILES) | overall locomotor activity | peripheral cholinergic symptoms / tolerability
39 | CCN(C)C(=O)Oc1cccc([C@H](C)N(C)C)c1 [Rivastigmine] | locomotor activity was normal as control group. | 1 mg/kg: No peripheral cholinergic symptoms. Overall

Same assay, conditions: 2 mg/kg

Row | Structure (SMILES) | duration of symptom phase [min] | onset of symptoms after dosing | recovery to normal after dosing
40 | CCN(C)C(=O)Oc1cccc([C@H](C)N(C)C)c1 [Rivastigmine] | 25 to 30 | 2 mg/kg: 5-10 min after dosing animals become | animals become normal one hr after

Same assay, conditions: 4 mg/kg

Row | Structure (SMILES) | time gap between cholinergic side effect and death
41 | CCN(C)C(=O)Oc1cccc([C@H](C)N(C)C)c1 [Rivastigmine] | administration. There was no detectable time gap

Same assay, conditions: 4 mg/kg oral

Row | Structure (SMILES) | mortality [%] | time to mortality after drug administration [min]
42 | CCN(C)C(=O)Oc1cccc([C@H](C)N(C)C)c1 [Rivastigmine] | 100 | ≤ 15

Same assay, conditions: 5 mg/kg dose

Row | Structure (SMILES) | tolerability
43 | Nc1c2c(nc3ccccc13)CCCC2 [Tacrine] | well tolerated at 5 mg/kg dose
44 | COc1cc2c(cc1OC)C(=O)C(CC1CCN(Cc3ccccc3)CC1)C2 (centres unmarked) [Donepezil] | well tolerated

Same assay, conditions: 25 mg/kg

Row | Structure (SMILES) | cholinergic symptoms
45 | COc1cc2c(cc1OC)C(=O)C(CC1CCN(Cc3ccccc3)CC1)C2 (centres unmarked) [Donepezil] | Moderate cholinergic

Same assay, conditions: 25 mg/kg, listed as donepezil

Row | Structure (SMILES) | cholinergic symptoms
46 | COc1cc2c(cc1OC)C(=O)C(CC1CCN(Cc3ccccc3)CC1)C2 (centres unmarked) [Donepezil] | moderate cholinergic symptoms

Same assay, conditions: 50 mg/kg

Row | Structure (SMILES) | side effects
47 | COc1cc2c(cc1OC)C(=O)C(CC1CCN(Cc3ccccc3)CC1)C2 (centres unmarked) [Donepezil] | severe side effects were found initially and all

Same assay, conditions: 50 mg/kg, listed as donepezil

Row | Structure (SMILES) | side effects
48 | COc1cc2c(cc1OC)C(=O)C(CC1CCN(Cc3ccccc3)CC1)C2 (centres unmarked) [Donepezil] | severe side effects were found initially

Same assay, conditions: oral dose of 3 mg/kg

Row | Structure (SMILES) | peripheral side effects
49 | CCN(C)C(=O)Oc1cccc([C@H](C)N(C)C)c1 [Rivastigmine] | some peripheral side effects
